Experimental data reported in PMC7523345 (Investigational new drugs, 2018).
“Also recorded” adds a separate entry of the source.

Experiment: Phase I dose escalation study: safety, tolerability, DLT and MTD
Assay type: in vivo

Cc1cccc2c1NC(=O)[C@@H](NC(=O)[C@H](CCC(F)(F)F)[C@H](CCC(F)(F)F)C(N)=O)N=C2c1cccc(F)c1 [BMS-986115]
Leucocytosis (drug related AE, Grade 3 and 4) (Arm A QD 2.0 mg (N = 7)): 0 n (%) | Mouth ulceration (drug related AE, all grades) (Arm A QD 2.0 mg (N = 7)): 1 (14) n (%) | Nausea (drug related AE, Grade 3 and 4) (Arm A QD 2.0 mg (N = 7)): 1 (14) n (%) | Nausea (drug related AE, all grades) (Arm A QD 2.0 mg (N = 7)): 5 (71) n (%) | Pruritus (drug related AE, Grade 3 and 4) (Arm A QD 2.0 mg (N = 7)): 1 (14) n (%) | Pruritus (drug related AE, all grades) (Arm A QD 2.0 mg (N = 7)): 3 (43) n (%) | Pulmonary embolism (drug related AE, Grade 3 and 4) (Arm A QD 2.0 mg (N = 7)): 0 n (%) | Rash (drug related AE, all grades) (Arm A QD 2.0 mg (N = 7)): 1 (14) n (%) | Rash maculopapular (drug related AE, all grades) (Arm A QD 2.0 mg (N = 7)): 2 (29) n (%) | Sinusitis (drug related AE, all grades) (Arm A QD 2.0 mg (N = 7)): 0 n (%) | Urticaria (drug related AE, Grade 3 and 4) (Arm A QD 2.0 mg (N = 7)): 1 (14) n (%) | Vision blurred (drug related AE, all grades) (Arm A QD 2.0 mg (N = 7)): 0 n (%) | Vomiting (drug related AE, Grade 3 and 4) (Arm A QD 2.0 mg (N = 7)): 1 (14) n (%) | Vomiting (drug related AE, all grades) (Arm A QD 2.0 mg (N = 7)): 5 (71) n (%) | Weight decreased (drug related AE, all grades) (Arm A QD 2.0 mg (N = 7)): 0 n (%) | No. of patients with DLTs (Arm A QD 2.0 mg, 5 DLT evaluable patients): 3 | Abdominal distension (drug related AE, all grades) (Arm A QD Total (N = 24)): 1 (4) n (%) | Abdominal pain (drug related AE, Grade 3 and 4) (Arm A QD Total (N = 24)): 1 (4) n (%) | Abdominal pain (drug related AE, all grades) (Arm A QD Total (N = 24)): 2 (8) n (%) | Blood creatinine increased (drug related AE, all grades) (Arm A QD Total (N = 24)): 1 (4) n (%) | Colitis (drug related AE, Grade 3 and 4) (Arm A QD Total (N = 24)): 1 (4) n (%) | Cough (drug related AE, Grade 3 and 4) (Arm A QD Total (N = 24)): 1 (4) n (%) | Cough (drug related AE, all grades) (Arm A QD Total (N = 24)): 3 (13) n (%) | Decreased Appetite (drug related AE, Grade 3 and 4) (Arm A QD Total (N = 24)): 0 n (%) | Decreased Appetite (drug related AE, all grades) (Arm A QD Total (N = 24)): 8 (33) n (%) | Dehydration (drug related AE, Grade 3 and 4) (Arm A QD Total (N = 24)): 0 n (%) | Dehydration (drug related AE, all grades) (Arm A QD Total (N = 24)): 3 (13) n (%) | Dermatitis acneiform (drug related AE, all grades) (Arm A QD Total (N = 24)): 4 (17) n (%) | Diarrhoea (drug related AE, Grade 3 and 4) (Arm A QD Total (N = 24)): 4 (17) n (%) | Diarrhoea (drug related AE, all grades) (Arm A QD Total (N = 24)): 18 (75) n (%) | Dry mouth (drug related AE, all grades) (Arm A QD Total (N = 24)): 2 (8) n (%) | Dry skin (drug related AE, all grades) (Arm A QD Total (N = 24)): 3 (13) n (%) | Dysgeusia (drug related AE, all grades) (Arm A QD Total (N = 24)): 3 (13) n (%) | Dyspepsia (drug related AE, all grades) (Arm A QD Total (N = 24)): 2 (8) n (%) | Dysphonia (drug related AE, all grades) (Arm A QD Total (N = 24)): 4 (17) n (%) | Fatigue (drug related AE, Grade 3 and 4) (Arm A QD Total (N = 24)): 1 (4) n (%) | Fatigue (drug related AE, all grades) (Arm A QD Total (N = 24)): 10 (42) n (%) | Flatulence (drug related AE, all grades) (Arm A QD Total (N = 24)): 0 n (%) | Hypocalcaemia (drug related AE, Grade 3 and 4) (Arm A QD Total (N = 24)): 0 n (%) | Hypocalcaemia (drug related AE, all grades) (Arm A QD Total (N = 24)): 1 (4) n (%) | Hypokalaemia (drug related AE, Grade 3 and 4) (Arm A QD Total (N = 24)): 4 (17) n (%) | Hypokalaemia (drug related AE, all grades) (Arm A QD Total (N = 24)): 7 (29) n (%) | Hyponatraemia (drug related AE, Grade 3 and 4) (Arm A QD Total (N = 24)): 1 (4) n (%) | Hyponatraemia (drug related AE, all grades) (Arm A QD Total (N = 24)): 1 (4) n (%) | Hypophosphataemia (drug related AE, Grade 3 and 4) (Arm A QD Total (N = 24)): 8 (33) n (%) | Hypophosphataemia (drug related AE, all grades) (Arm A QD Total (N = 24)): 16 (67) n (%) | Ileus (drug related AE, Grade 3 and 4) (Arm A QD Total (N = 24)): 1 (4) n (%) | Increased upper airway secretion (drug related AE, all grades) (Arm A QD Total (N = 24)): 0 n (%) | Laryngeal pain (drug related AE, all grades) (Arm A QD Total (N = 24)): 2 (8) n (%) | Leucocytosis (drug related AE, Grade 3 and 4) (Arm A QD Total (N = 24)): 0 n (%) | Mouth ulceration (drug related AE, all grades) (Arm A QD Total (N = 24)): 2 (8) n (%) | Nausea (drug related AE, Grade 3 and 4) (Arm A QD Total (N = 24)): 3 (13) n (%) | Nausea (drug related AE, all grades) (Arm A QD Total (N = 24)): 15 (63) n (%) | Pruritus (drug related AE, Grade 3 and 4) (Arm A QD Total (N = 24)): 1 (4) n (%) | Pruritus (drug related AE, all grades) (Arm A QD Total (N = 24)): 6 (25) n (%) | Pulmonary embolism (drug related AE, Grade 3 and 4) (Arm A QD Total (N = 24)): 1 (4) n (%) | Rash (drug related AE, all grades) (Arm A QD Total (N = 24)): 8 (33) n (%) | Rash maculopapular (drug related AE, all grades) (Arm A QD Total (N = 24)): 2 (8) n (%) | Sinusitis (drug related AE, all grades) (Arm A QD Total (N = 24)): 2 (8) n (%) | Urticaria (drug related AE, Grade 3 and 4) (Arm A QD Total (N = 24)): 1 (4) n (%) | Vision blurred (drug related AE, all grades) (Arm A QD Total (N = 24)): 1 (4) n (%) | Vomiting (drug related AE, Grade 3 and 4) (Arm A QD Total (N = 24)): 1 (4) n (%) | Vomiting (drug related AE, all grades) (Arm A QD Total (N = 24)): 12 (50) n (%) | Weight decreased (drug related AE, all grades) (Arm A QD Total (N = 24)): 2 (8) n (%) | Patients with dose limiting toxicities (Arm A QD, all dose levels): Four | Treatment-related SAEs, description (Arm A QD, one line per subject): Gr 3 nausea with Gr 3 fatigue and Gr 4 hypophosphataemia; also recorded: Gr 3 ileus | Maximum Tolerated Dose (MTD) (Arm A, once daily (QD) oral dosing): 1.5 mg | Subjects with treatment-related SAEs (Arm B BIW): 2 subjects | Abdominal distension (drug related AE, all grades) (Arm B BIW 2 mg (N = 2)): 0 n (%) | Abdominal pain (drug related AE, Grade 3 and 4) (Arm B BIW 2 mg (N = 2)): 0 n (%)
